Measurements published in US10208010B2, “Crystal of a heterocyclidene acetamide derivative” (MOCHIDA PHARMACEUTICAL CO., LTD., priority 2017, dated 2019).

Experiments:
human TRPV1 = biological target: T1, human TRPV1 (Homo sapiens, UniProt Q8NER1); experiment: Measurement of capsaicin-induced Ca influx in human TRPV1-transformed CHO cell line; type: cell-based; conditions: concentration shifting the capsaicin concentration reaction curve to the right by two times; hTRPV1-CHO cells, FDSS-6000
T1 construct: expressed in transfected cells
T1 sequence (Q8NER1 whole entry): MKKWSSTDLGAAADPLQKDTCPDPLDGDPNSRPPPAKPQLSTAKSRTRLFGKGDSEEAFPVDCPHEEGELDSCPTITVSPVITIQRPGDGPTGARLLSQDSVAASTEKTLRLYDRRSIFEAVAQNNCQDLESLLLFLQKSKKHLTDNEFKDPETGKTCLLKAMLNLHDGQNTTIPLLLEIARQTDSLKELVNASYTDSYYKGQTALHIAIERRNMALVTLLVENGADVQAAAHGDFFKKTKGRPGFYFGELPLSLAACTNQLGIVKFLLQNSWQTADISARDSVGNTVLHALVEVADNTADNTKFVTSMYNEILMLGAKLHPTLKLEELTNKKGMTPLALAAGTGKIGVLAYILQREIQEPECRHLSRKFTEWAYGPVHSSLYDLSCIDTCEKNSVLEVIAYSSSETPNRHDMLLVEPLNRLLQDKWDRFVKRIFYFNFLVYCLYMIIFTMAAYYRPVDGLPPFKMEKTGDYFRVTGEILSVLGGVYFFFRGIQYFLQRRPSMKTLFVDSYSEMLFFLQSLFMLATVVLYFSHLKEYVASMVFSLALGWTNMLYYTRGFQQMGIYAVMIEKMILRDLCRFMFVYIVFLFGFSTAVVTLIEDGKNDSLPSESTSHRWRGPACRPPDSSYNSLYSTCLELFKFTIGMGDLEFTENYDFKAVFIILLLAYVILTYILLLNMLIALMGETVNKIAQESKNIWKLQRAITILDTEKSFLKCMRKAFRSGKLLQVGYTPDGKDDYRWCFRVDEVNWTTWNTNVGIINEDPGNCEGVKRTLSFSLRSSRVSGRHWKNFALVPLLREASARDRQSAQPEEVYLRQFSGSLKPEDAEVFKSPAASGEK
Description: (1) Establishment of Human TRPV1-Transformed CHO Cell Line
Human vanilloid receptor 1 (hTRPV1) cDNA was cloned from a human brain. The cloned hTRPV1 cDNA was inserted into a pCAGGS vector, which was then genetically introduced into a CHO-K1 cell line to transform the cells. Clones obtained by limiting dilution were stimulated with capsaicin, and clones with a high responsiveness were selected based on increased Ca concentration. The selected clones were then used for the following experiment.
(2) Measurement of Ca Influx Using FDSS-6000
Human TRPV1-transformed CHO cells were seeded at a density of 40,000 cells per well on a 96-well plate (black walls, transparent bottom/manufactured by Greiner Bio-One International GmbH). […] Changes in intracellular Ca concentration were measured for 3 minutes after capsaicin stimulus (1 nmol/L to 1 μmol/L) with an FDSS-6000 (λex: 480 nm, λem: 540 nm, Hamamatsu Photonics K.K.). The integral values of the respective intracellular Ca concentration increase rates in the medium group and the group treated with the crystal of the invention were calculated, and capsaicin concentration reaction curves were prepared.

[1] = Photostability test in accordance with ICH Q1B; type: physicochemical; conditions: for Stability with respect to light: summary in words of Table 10
Protocol: (Experimental Example 4) Photostability Test
After completion of the test, each sample was removed, its chemical purity was measured by high performance liquid chromatography, and the crystal form was confirmed by x-ray powder analysis.

[2] = Solvent suspension test of crystal form mixture; type: physicochemical; conditions: 25° C.
Description: (Experimental Example 1) Solvent Suspension Test of Crystal Form Mixture

[3] = Storage stability test (powder stability); type: physicochemical
Protocol: (Experimental Example 2) Storage Stability Test
(§1) After the end of the storage period, the samples were removed, their chemical purities were measured by high performance liquid chromatography, and the crystal forms were confirmed by x-ray powder analysis.

[4] = Long-term storage stability test (powder stability); type: physicochemical
Protocol: (Experimental Example 3) Long-Term Storage Stability Test
as §1

[5] = 1ICH (10-day test; 1.2 million lux hours and 200 watt hours/m^2 or more at 25° C.)
[6] = 25° C./60% RH, 6 months, sealed
[7] = 25° C./60% RH, 13 months, sealed
[8] = 25° C./60% RH, 24 months, sealed
[9] = 25° C./60% RH, 36 months, sealed
[10] = 25° C./60% RH, 48 months, sealed

| SMILES | Chemical purity (%) [1, 5] [%] | Crystal form [1, 5] | Chemical purity (%) ([1]; Before test) | Crystal form ([1]; Before test) | Stability with respect to light [1] | Chemical purity (%) ([3]; 25° C./60% RH, 1 month, sealed) | Crystal form ([3]; 25° C./60% RH, 1 month, sealed) | Chemical purity (%) ([3]; 40° C./75% RH, 1 month, sealed) | Crystal form ([3]; 40° C./75% RH, 1 month, sealed) | Chemical purity (%) ([3]; 60° C., 1 month, sealed) | Crystal form ([3]; 60° C., 1 month, sealed) | Chemical purity (%) ([3]; Before test) | Crystal form ([3]; Before test) | other results |
| --- | --- | --- | --- | --- | --- | --- | --- | --- | --- | --- | --- | --- | --- | --- |
| O=C(/C=C1\CCOc2cc(C(F)(F)F)ccc21)Nc1cccc2c1C[C@H](O)CC2 [Compound (1), (E)-2-(7-trifluoromethyl-chroman-4-ylidene)-N-((7R)-7-hydroxy-5,6,7,8-tetrahydronaphthalen-1-yl)acetamide] | – | – | – | – | – | – | – | – | – | – | – | – | – | A2 value (human TRPV1): A (A less than 100 nmol/L) |
| O=C(/C=C1\CCOc2cc(C(F)(F)F)ccc21)Nc1cccc2c1C[C@H](O)CC2 [Type I crystal, (E)-2-(7-trifluoromethyl-chroman-4-ylidene)-N-((7R)-7-hydroxy-5,6,7,8-tetrahydronaphthalen-1-yl)acetamide] | >99.9 | Type I crystal | >99.9 | Type I crystal | extremely high chemical and physical stability | >99.9 | Type I | >99.9 | Type I | >99.9 | Type I | >99.9 | Type I | Thermodynamic stability in suspension [2]: thermodynamically stable in suspension; Chemical purity (%) ([4]; 25° C./60% RH, 3 months, sealed): >99.9%; Chemical purity (%) [4, 6]: >99.9%; Crystal form [4, 6]: Type I; Chemical purity (%) [4, 7]: >99.9%; Crystal form [4, 7]: Type I; Chemical purity (%) [4, 8]: >99.9%; Crystal form [4, 8]: Type I; Chemical purity (%) [4, 9]: >99.9%; Crystal form [4, 9]: Type I; Chemical purity (%) [4, 10]: >99.9%; Crystal form [4, 10]: Type I; Chemical purity (%) ([4]; Before test): >99.9%; Crystal form ([4]; Before test): Type I; Moisture absorption ([4]; during the test periods of Experimental Examples 2 and 3): no moisture absorption; Chemical and physical stability ([4]; test periods of Experimental Examples 2 and 3): chemically and physically stable throughout the test period |
| O=C(/C=C1\CCOc2cc(C(F)(F)F)ccc21)Nc1cccc2c1C[C@H](O)CC2 [Type II crystal, (E)-2-(7-trifluoromethyl-chroman-4-ylidene)-N-((7R)-7-hydroxy-5,6,7,8-tetrahydronaphthalen-1-yl)acetamide] | 98.2 | Type II crystal | >99.9 | Type II crystal | unstable with respect to light | >99.9 | Type II | >99.9 | Type II | >99.9 | Type II | >99.9 | Type II | – |
